Results on 14 molecules are retold here after article PMC5458078, “Global mapping of CARM1 substrates defines enzyme specificity and substrate recognition” (Nature Communications, 2017).

The test system of series [1] is histone substrate. As to conditions: cited from earlier work. The source says: page 18: We agree with the reviewer’s assertion that proteomic experiments generally suffer from the abundance bias. However, we, and others, argue that analyses of post-translational modifications are less affected by this issue, as the immunoprecipitation and other methods of PTM enrichment rely on the abundance of the PTM itself, not the protein that bears it, i.e., a strongly modified low abundance protein is as likely to be pulled down as a lowly modified high abundance protein.

Series [2] deals with MCF7 cells. Kind of series: Quantitative nanoLC-MS/MS (TMT) of ADMA-containing peptides, CARM1 KO vs parental. The class given is cell-based, human. Also on record: Fold change KO/WT: scale not given here.
Series [3] has as its system MCF7 CARM1 KO cells. Description: Quantitative MS of ADMA-containing peptides in MCF7 CARM1 KO cells expressing CARM1 28-608 or CARM1 140-608, and in CARM1 KO. The class given is cell-based, human.
For series [4], the system named is recombinant full-length BAF155 protein. Description: In vitro methylation of full-length FLAG-BAF155 by recombinant CARM1 proteins, autoradiography. The class given is biochemical. The settings on record: 3H-SAM, 50 mM Tris-HCl pH 8.0, 100 mM NaCl, 0.5 mM EDTA, 1–4 h, 30 °C. As for the experimental part: The FL and N-terminal domain-deleted version of human CARM1 cDNAs, and other PRMT FL cDNAs were cloned into pFN21K Halo Tag CMV Flexi mammalian expression vector (Promega, Madison, WI) using the unique Sgfl and Pmel site[55]. To express the protein, DNA constructs were transiently transfected into HEK293T CARM1 KO cells in 15 cm dishes using transIT-LT1 reagent (Mirus Bio, Madison, WI) according to the manufacturer's protocol. Proteins were allowed to express for 48 h. Cell pellets were then collected and lysed in lysis buffer (50 mM HEPES, pH 7.5, 150 mM NaCl, 0.005% NP-40, 0.5 mM EDTA, supplemented with 1 × protease inhibitor cocktail before use). The cells were sonicated on ice using a Branson Sonifier 450 with a microtip at 35% amplitude (10 s on, 30 s off, 6 cycles). […] The resin was centrifuged at 3,000 r.p.m. for 5 min, and the supernatant containing the cleaved protein was collected and protein concentration was determined using the Bradford assay (Thermo Scientific, Rockford, IL). Protein purity was assessed by running SDS–PAGE and Coomassie Blue staining.
CMX-Flag-BAF155 construct was generated by subcloning a PCR-amplified Flag-BAF155 fragment into the CMX-expression vector. […] Protein concentration was determined using Bradford assay and protein purity was assessed by SDS–PAGE and Coomassie Blue staining. […]

For series [5], the system named is BAF155, MED12, PABP1, NCOA3 and TET2. Description: Co-immunoprecipitation of BAF155, MED12, PABP1, NCOA3 and TET2 with FLAG-tagged CARM1, western blot. The class given is cell-based. As to conditions: FLAG-tagged construct transiently transfected in HEK293T CARM1 KO cells; anti-FLAG IP. The source says: The structure of the N-terminal domain of CARM1 (residues 28–140) resembles those of the EVH1 domains, a subfamily of PH domains that bind proline-rich sequences. With our discovery that CARM1 substrates contain proline-rich motifs, we posited that the protein's N-terminal domain may be required for substrate recognition. To test this hypothesis, we generated three CARM1 constructs: one full-length (CARM1 FL) and two N-terminal truncations CARM1 28–608 and CARM1 140–608 (Fig. 3a). […] We transiently transfected the three FLAG-tagged CARM1 fusion constructs in HEK293T CARM1 KO cells. CARM1 was immunoprecipitated from all three cell lines using anti-FLAG M2 resin, and four known CARM1 substrates/interactors (that is, BAF155 (ref. [20]), MED12 (ref. [30]), PABP1 (ref. [36]) and NCOA3 (ref. [19])) and newly identified TET2 were detected by western blotting. […] To globally assess the magnitude of reduction in CARM1–substrate interactions induced by the loss of the EVH1 domain, we visualized overall protein changes in CARM1 immunoprecipitates by western blotting using the ADMA antibody (Fig. 3c).
(§1) Cells were collected by trypsinization, washed with Dulbecco's phosphate buffer saline (Life Technologies, Carlsbad, CA) and lysed by suspension in lysis buffer (50 mM Tris-HCl pH 8.0, 150 mM NaCl, 10% glycerol, 0.5% Triton X-100 and 1 × protease inhibitor cocktail (Sigma-Aldrich)). After brief sonication followed by centrifugation, total protein was quantified using the BioRad Protein Assay (BioRad, Hercules, CA), and 20 μg protein was resolved by SDS–PAGE. Proteins were transferred to a nitrocellulose membrane for 1.5 h at 350 mA. Membranes were blocked with 5% nonfat milk at room temperature for 1 h and incubated overnight with diluted primary antibody at 4 °C. Membranes were then washed and incubated with HRP-conjugated secondary antibody for 1 h at room temperature. Signal was visualized by enhanced chemiluminescence reagents (Thermo Scientific, Rockford, IL) and X-ray film exposure followed by scanning and digitalization. […]

Series [6] relates to HEK293T CARM1 KO cells. Description: Total ADMA levels after transient transfection, western blot. The class given is cell-based. The settings on record: transient expression in HEK293T CARM1 KO cells. As for the experimental part: (§2) Next, we transiently transfected FL and the two aforementioned CARM1 truncations in HEK293T CARM1 KO cells and measured substrate methylation by western blotting with ADMA antibodies.
as §1, with “digitalization. Me-PABP1 and PABP1 antibodies, me-BAF155 antibody[20] and me-MED12 antibody[30] were generated previously in the Xu lab.” for “digitalization.”
In general terms: In western blotting, separated proteins are transferred to a membrane and probed.

In series [7] the test system is HEK293T CARM1 KO cells. Description: Rescue of endogenous BAF155 and MED12 methylation, transient transfection, western blot. The class given is cell-based. The settings on record: transient expression in HEK293T CARM1 KO cells. As for the experimental part:
as §2
Cells were collected by trypsinization, washed with Dulbecco's phosphate buffer saline (Life Technologies, Carlsbad, CA) and lysed by suspension in lysis buffer (50 mM Tris-HCl pH 8.0, 150 mM NaCl, 10% glycerol, 0.5% Triton X-100 and 1 × protease inhibitor cocktail (Sigma-Aldrich)). After brief sonication followed by centrifugation, total protein was quantified using the BioRad Protein Assay (BioRad, Hercules, CA), and 20 μg protein was resolved by SDS–PAGE. Proteins were transferred to a nitrocellulose membrane for 1.5 h at 350 mA. Membranes were blocked with 5% nonfat milk at room temperature for 1 h and incubated overnight with diluted primary antibody at 4 °C. Membranes were then washed and incubated with HRP-conjugated secondary antibody for 1 h at room temperature. Signal was visualized by enhanced chemiluminescence reagents (Thermo Scientific, Rockford, IL) and X-ray film exposure followed by scanning and digitalization. Me-PABP1 and PABP1 antibodies, me-BAF155 antibody[20] and me-MED12 antibody[30] were generated previously in the Xu lab. FLAG antibody (catalogue #F7425) was purchased from Sigma and used at a dilution of 1:5,000; BAF155 antibody (sc-10756) was purchased from Santa Cruz and used at a dilution of 1:1,000; MED12 antibody (ab70842) was purchased from Abcam (Cambridge, MA) and used at 1:1,000 dilution.

[8] abbreviates: ADMA-containing peptide, MCF7, CARM1 knockout (KO1-3) vs wild type (WT1-3), TMT 6-plex experiment #1.
Setting [9] is: log2 scale ratio, mean of n = 3.
[10] abbreviates: difference of log2 means, CARM1 140-608 vs WT.
[11] abbreviates: difference of log2 means, KO vs WT.
Setting [12] is: ADMA-containing peptide, CARM1 knockout (KO) vs wild type (WT) MCF7 cells, 6-plex TMT experiment #1, three biological replicates each, sheet "MCF7".
Setting [13] is: CARM1 140-608 versus WT, mean of three replicates (log2).
[14] abbreviates: KO versus WT, mean of three replicates (log2).
Setting [15] is: CARM1 KO vs wild type MCF7 cells, 3 biological replicates each.
Setting [16] is: CARM1 140-608 versus WT, difference of mean log2 values.
Setting [17] is: CARM1 KO versus WT, difference of mean log2 values.
[18] abbreviates: MCF7, CARM1 KO (KO1-KO3) vs wild type (WT1-WT3).

Read-outs that look alike come from different tables or passages of the source.

The term Km denotes the concentration of substrate that gives half-maximal velocity. For the molecule “PRMT1: protein arginine methyltransferase 1”, the Michaelis constant (Km) in series [1] (PRMT1, histone substrate, ref Pak et al., Biochem 2011) was 4.2 µM.

On to VrINLQQQPPPLQIK, for which the “Fold change KO/WT” value in series [2] (setting [8]) was -3.801. In addition, in series [3] (setting [9]), the “CARM1 140-608/WT” value is -1.463 and the KO/WT is recorded as -4.329.

For the molecule VrLPCQPLVPGPELRPSAAELK, in series [2] (MCF7 CARM1 knockout vs wild type, 3 biological replicates each, values are on log2 scale), the “Fold change KO/WT” value is listed as -2.704. The “CARM1 140-608/WT” value in series [3] (setting [10]) is -1.578. In series [3] (setting [11]), this molecule came in with a KO/WT of -2.704.

In the case of VrPVLNLPGPGPALPR, in series [2] (setting [12]), the “Fold change KO/WT” value is -2.268. The “CARM1 140-608/WT” value in series [3] (setting [13]) is listed as -1.7334. The molecule also returned a KO/WT in series [3] (setting [14]) of -4.296.

As for VrPVLNLPGPGPALPrALER, in series [2] (setting [12]), the “Fold change KO/WT” value is -2.391. The “CARM1 140-608/WT” value in series [3] (setting [10]) is reported as -2.008. Besides, the KO/WT in series [3] (setting [11]) is listed as -2.391.

For WrYNKPLPPTPDLPQPHLPPISAPGSSR, the “Fold change KO/WT” value in series [2] (MCF7, CARM1 KO vs WT, three biological replicates each) was -1.565. In addition, the “CARM1 140-608/WT” value in series [3] (CARM1 140-608 vs WT, mean of 3 replicates, log2) is on record as -1.118. The KO/WT in series [3] (KO vs WT, mean of 3 replicates, log2) is -1.565.

For the molecule YCLTAPNYrLK, the “Fold change KO/WT” value in series [2] (setting [8]) was -0.9585. In addition, in series [3] (setting [9]), the “CARM1 140-608/WT” value is on record as -1.503 and the KO/WT was -1.727.

Regarding YLQTVQYGVHGNFPrLSYPTFFPR, the “Fold change KO/WT” value in series [2] (MCF7, CARM1 knockout vs wild type, n = 3 each) is given as -2.556. Also, the “CARM1 140-608/WT” value in series [3] (mean, CARM1 140-608 versus WT (log2 scale)) was -2.496. In series [3] (mean, CARM1 KO versus WT (log2 scale)), this molecule displayed a KO/WT of -3.476.

Consider YPLPPPSGrYNWN, for which the “Fold change KO/WT” value in series [2] (setting [15]) was -1.371. For the same molecule, the “CARM1 140-608/WT” value in series [3] (setting [16]) was -1.592. Moreover, the KO/WT in series [3] (setting [17]) is given as -1.5401.

For YRPYDGAASAYAQNYrYPEPERPSSR, the “Fold change KO/WT” value in series [2] (setting [18]) is given as -0.7141. In series [3] (CARM1 140-608 vs WT, mean of 3 replicates (log2 scale)), the “CARM1 140-608/WT” value is on record as -1.157. The molecule also showed a KO/WT in series [3] (KO vs WT, mean of 3 replicates (log2 scale)) of -0.7141.

Regarding YSAFQLAPFQDHGLPAVSVDSPVrYK, the “Fold change KO/WT” value in series [2] (setting [15]) is listed as -2.156. In series [3] (setting [16]), the “CARM1 140-608/WT” value is -1.433. The KO/WT in series [3] (setting [17]) is listed as -2.156.

Take rPFGISALIVGFDDDGISR: the “Fold change KO/WT” value in series [2] (setting [18]) is reported as -1.577. Besides, the “CARM1 140-608/WT” value in series [3] (setting [13]) is -0.5842. In series [3] (setting [14]), the KO/WT was -1.577.

B1: CARM1: coactivator-associated arginine methyltransferase 1 (protein)
chain: MAAAAAAVGPGAGGAGSAVPGGAGPCATVSVFPGARLLTIGDANGEIQRHAEQQALRLEVRAGPDSAGIALYSHEDVCVFKCSVSRETECSRVGKQSFIITLGCNSVLIQFATPNDFCSFYNILKTCRGHTLERSVFSERTEESSAVQYFQFYGYLSQQQNMMQDYVRTGTYQRAILQNHTDFKDKIVLDVGCGSGILSFFAAQAGARKIYAVEASTMAQHAEVLVKSNNLTDRIVVIPGKVEEVSLPEQVDIIISEPMGYMLFNERMLESYLHAKKYLKPSGNMFPTIGDVHLAPFTDEQLYMEQFTKANFWYQPSFHGVDLSALRGAAVDEYFRQPVVDTFDIRILMAKSVKYTVNFLEAKEGDLHRIEIPFKFHMLHSGLVHGLAFWFDVAFIGSIMTVWLSTAPTEPLTHWYQVRCLFQSPLFAKAGDTLSGTCLLIANKRQSYDISIVAQVDQTGSKSSNLLDLKNPFFRYTGTTPSPPPGSHYTSPSENMWNTGSTYNLSSGMAVAGMPTAYDLSSVIASGSSVGHNNLIPLANTGIVNHTHSRMGSIMSTGIVQGSSGAQGSGGGSTSAHYAVNSQFTMGGPAISMASPMSIPTNTMHYGS
modifications: left off: FLAG, end not stated, kept
B1: in series [1] (CARM1, natural histone substrate, ref Jacques et al., 2016), the Km is 0.15 µM.

B2: CARM1 FL: full-length CARM1, contained 608 residues (protein)
chain: B1 chain
modifications: left off: FLAG, end not stated, kept
notes: full-length CARM1, contained 608 residues
Regarding B2, the “Methylation of full-length BAF155” value in series [4] was “methylated recombinant full-length BAF155 protein”. Also, in series [5], the “Co-precipitation of BAF155, MED12, PABP1, NCOA3 and TET2” value is recorded as “all five proteins were co-precipitated”. The “Total levels of ADMA modification” value in series [6] was “recovered to the level of parental cells”. Besides, the “Methylation of endogenous BAF155 and MED12” value in series [7] is “methylation of endogenous BAF155 and MED12 was restored”.
